Test results reported in article PMC10826043 (BMC Complementary Medicine and Therapies, 2024).

Key:
[1] = study encompassing 714 medicated patients; ref [10]; cited from earlier work
α-amylase [2] = conditions: validation set, supplement ref [3]; cited from earlier work
α-amylase [3] = target: T1, α-amylase (Sus scrofa, UniProt P00690); assay: Combination analysis of α-amylase inhibition (CompuSyn: median-effect, isobologram, CI, DRI); assay type: biochemical, porcine; conditions: for Dose (mM) Kaempferol: kaempferol alone
T1 construct: α-amylase from porcine pancreas (A3176); purchased Sigma-Aldrich (Germany) A3176; host or cells: porcine pancreas (tissue-derived)
T1 sequence (P00690 16-511): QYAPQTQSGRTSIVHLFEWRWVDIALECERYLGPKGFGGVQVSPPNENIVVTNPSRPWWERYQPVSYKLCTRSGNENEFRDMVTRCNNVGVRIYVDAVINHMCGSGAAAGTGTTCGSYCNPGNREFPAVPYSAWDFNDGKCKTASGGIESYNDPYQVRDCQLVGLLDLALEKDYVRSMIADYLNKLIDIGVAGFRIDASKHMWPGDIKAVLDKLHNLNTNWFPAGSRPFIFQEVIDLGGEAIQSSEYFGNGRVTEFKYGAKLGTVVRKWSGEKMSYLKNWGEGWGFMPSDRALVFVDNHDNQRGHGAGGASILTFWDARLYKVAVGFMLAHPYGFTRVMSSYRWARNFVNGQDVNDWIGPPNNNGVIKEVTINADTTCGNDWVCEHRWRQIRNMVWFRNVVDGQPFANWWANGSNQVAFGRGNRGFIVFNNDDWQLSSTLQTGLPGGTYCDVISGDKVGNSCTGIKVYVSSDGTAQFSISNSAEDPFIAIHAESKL
Description: These include: median effect, isobolographic, combination index, and lastly, dose reduction index analyses.
Data input included each inhibitors’ independent activity and the summation of both inhibitors’ activity when used in conjunction of each other. […] 2.6.
This method of analysis relies on its namesake equation, the median-effect equation which stems from the general mass-action law principle. Each inhibitor’s sigmoidal dose–effect plot was individually generated in addition to their respective combination. Thereafter, the plot was transfigured linearly into median-effect plots. The median-effect equation is described as: fa/fu=D/Dm^m
D represents the dose of the inhibitor, Dm is the inhibitor’s dose causing a decrease of 50% in the enzyme’s activity, fa is the fraction affected by dose D , fu is the unaffected fraction ( fu = 1 – fa ), and m the curve’s sigmoidicity coefficient. Through logarithmic transformation, the equation becomes: Logfa/fu=mlogD-mlog(Dm)
This, in turn, results in the median-effect plot. A plot where y=log(fa/fu) against x=log(D) with m being the slope and log(Dm) , the x-intercept. Dm and m are obtained from the median-effect plot. To determine the data’s conformity to the general mass-action principle, the linear correlation coefficient (r) of the plot is assessed.
Using each inhibitor’s individual effect, this method of analysis is employed to assess the combined effect of two inhibitors. A graph, wherein the x- and y- axes represent the doses of inhibitors A and B, respectively, is plotted. The doses, a and b denote the dose of inhibitor A and B, respectively, resulting in the same efficacy when used individually. (e.g.: At x % inhibition, a = CA,x and b = CB,x ). To assess the combined effects of inhibitors A and B, an additive line must first be established. This is accomplished by connecting two points of the same efficacy (e.g.: connecting a with b). Based on the respective position of the combination data points relative to the additive line, the nature of the interaction can be determined; synergism, addition, or antagonism are indicated by data points lying below, on, or above the additive line, respectively.
The combination index (CI) quantitatively evaluates the type of interaction between two inhibitors at a series of inhibition levels. CI is calculated by means of the following equation [38]: CI=CA,x/ICx,A+CB,x/ICx,B Where ICx,A and ICx,B are the doses of inhibitors A and B, respectively, required to produce x % inhibition when each inhibitor is used individually. Whereas CA,x and CB,x are the doses of inhibitors A and B, respectively, required to produce x % inhibition when a binary mixture is used. Based on the resulting CI, the nature of the inhibitors’ interaction can be concluded. A CI lower than, equal to, or greater than 1 is indicative of synergism, addition, or antagonism, respectively. Alternatively, the interaction present between the two inhibitors can be deduced via the combination index ( fa -CI) plot.
The dose reduction index (DRI) was calculated for synergistic binary combinations to measure the fold decrease in the dose of each inhibitor at a given effect level, relative to the dose of each inhibitor when used solitarily resulting in the same effect. DRI can be calculated as follows: DRI=IC50[solitaryinhibitor]/IC50[inhibitorincombination]
DRI values > 1 are favored, reflecting a decrease in dose while maintaining or enhancing the inhibitor’s efficacy.

[4] = target: T2, α-amylase from porcine pancreas (Sus scrofa, UniProt P00690); assay: In vitro pancreatic α-amylase inhibitory assay (starch/DNS, 540 nm); assay type: biochemical; conditions: 1% starch, pH 6.9, 25 °C, read-out: IC50 (α-amylase inhibition)
T2 construct: α-amylase from porcine pancreas (A3176); purchased Sigma-Aldrich (Germany) A3176; host or cells: porcine pancreas (tissue-derived)
T2 sequence (P00690 16-511): T1 sequence (P00690 16-511)
Experimental: Analytical purity grade solvents were used throughout the study.
With reference to the established technique, the assay was carried out quantitatively with minor adjustments. Initially, 500µL test solution was preincubated with 500µL α-amylase solution (0.55 unit/mL) at 25°C for 10 min. The α-amylase was prepared in a buffer solution (0.02M sodium phosphate pH 6.9 with 0.006M NaCl). Afterwards, 500µL of 1% w/v starch in buffer solution was mixed in and left to incubate for 10 min at 25°C. To bring the reaction to a halt, 1mL dinitrosalicylic acid (DNS) was introduced and the mixture was placed in a boiling water bath for 3.5 min. After cooling to room temperature, the mixture was then diluted using 10mL distilled water and absorbance was measured using a Laxco spectrophotometer (α1502, Laxco Inc., USA) at λ 540nm. Blanks used throughout the experiment were made by adding pure buffer instead of α-amylase solution. […] To calculate the pancreatic α-amylase inhibitory activity, the following equation was used: %Inhibtion=100×1-Abs540nmExtract-Abs540nmPositivecontrol/Abs540nmNegativecontrol-Abs540nmPositivecontrol

Row | Compound | participants who discontinued acarbose due to gastrointestinal side effects [1] [%] | IC50 (α-amylase [2]) [mM] | IC50 (α-amylase [3]) [mM] | m (slope of median-effect plot) (α-amylase [3]) | r (correlation coefficient of median-effect plot) (α-amylase [3]) | DRI Kaempferol (α-amylase [3]; fold dose reduction in combination with acarbose at 26% inhibition) | DRI Kaempferol (α-amylase [3]; fold dose reduction in combination with acarbose at 86% inhibition) | DRI Kaempferol (α-amylase [3]; fold dose reduction in combination with acarbose at 91% inhibition) | Dose (mM) Kaempferol (α-amylase [3]; dose needed for 26% inhibition) [mM] | Dose (mM) Kaempferol (α-amylase [3]; dose needed for 86% inhibition) [mM] | Dose (mM) Kaempferol (α-amylase [3]; dose needed for 91% inhibition) [mM] | IC50 [4] [mM]
1 | C[C@H]1O[C@H](O[C@H]2[C@H](O)[C@@H](O)[C@@H](O[C@H]3[C@H](O)[C@@H](O)C(O)O[C@@H]3CO)O[C@@H]2CO)[C@H](O)[C@@H](O)[C@@H]1N[C@H]1C=C(CO)[C@@H](O)[C@H](O)[C@H]1O (stereo partly drawn) [Acarbose] | 19 |  |  |  |  |  |  |  |  |  |  | 
2 | O=c1c(O)c(-c2ccc(O)cc2)oc2cc(O)cc(O)c12 [Kaempferol] |  | 0.0165 ± 0.00184 | 4.84 | 1.18 | 1.00 | 2.66 | 2.27 | 1.11 | 1.99 | 22.6 | 34.5 | 4.84 ± 0.14
